Assay results reported in article PMC6072516, “Rational design and synthesis of novel phenylsulfonyl-benzamides as anti-prostate cancer agents” (MedChemComm, 2017).

System: not listed separately
Experiment: Cell Titer Blue viability (cytotoxicity) assay
Format: cell-based, human
Details: human
Experimental: A Cell Titer Blue viability assay was performed in the human embryonic kidney cell line HEK293, in order to evaluate the cytotoxicity profile of the newly prepared compounds. […] .
Fig. 5 HEK293 human embryonic kidney cells were treated at 70% confluence with negative controls (0.1% DMSO, BICAL at 10 μM), positive control (10% DMSO) and compounds at 10 μM concentration for 24 hours. […] Fluorescence was measured at 560/590 nm using a CLARIOstar luminescence plate reader (BMG Labtech). N = 4, n = 6 for controls, n = 3 for drugs. […]
for calculation of the geometric mean value. […]
of 0.05% Trypsin/EDTA. […] When all cells […]
chamber counting grid (Immune Systems). […]
confluence for assay the next day. […]
drugs at 10 µM concentration.
100 µl media. […] Fluorescence was measured
USA). […] The Dunnett’s multiple […]
comparison test was used to compare each drug and the positive control to the negative control […]
Compound R1 X R2 Cell Viability Antiproliferative
Mean (%)* SEM** Abs. IC50
Table S2. Cell Viability assay at 10 µM. * Mean % of cell viability relative to control; ** Errors are calculated as standard error of the mean; ***Geometric mean.

| SMILES | viability at 24 h, 10 µM [%] |
| --- | --- |
| O=C(Nc1ccc([N+](=O)[O-])c(C(F)(F)F)c1)c1ccc(Sc2ccc(O)cc2)cc1 [Compound 11b] | 65.4 |
| O=C(Nc1cc(C(F)(F)F)cc(C(F)(F)F)c1)c1ccc(Sc2ccc(O)cc2)cc1 [Compound 11c] | 64.2 |
| O=C(Nc1cc(C(F)(F)F)ccc1C(F)(F)F)c1ccc(Sc2ccc(O)cc2)cc1 [Compound 11d] | 53.7 |
| O=C(Nc1ccc(S(F)(F)(F)(F)F)cc1)c1ccc(Sc2ccc(O)cc2)cc1 [Compound 11e] | 49.5 |
| O=C(Nc1cccc(S(F)(F)(F)(F)F)c1)c1ccc(Sc2ccc(O)cc2)cc1 [Compound 11f] | 60.5 |
| O=C(Nc1ccc(C(F)(F)F)cc1)c1ccc(Sc2ccc(O)cc2)cc1 [Compound 11g] | 66.3 |
| O=C(Nc1cccc(C(F)(F)F)c1)c1ccc(Sc2ccc(O)cc2)cc1 [Compound 11h] | 85.6 |
| O=C(Nc1ccccc1C(F)(F)F)c1ccc(Sc2ccc(O)cc2)cc1 [Compound 11i] | 111 |
| O=C(Nc1cccc(C(F)(F)F)c1)c1ccc(Sc2cccc(C(F)(F)F)c2)cc1 [Compound 12h] | 112 |
| O=C(Nc1ccc([N+](=O)[O-])c(C(F)(F)F)c1)c1ccc(S(=O)(=O)c2ccc(O)cc2)cc1 [Compound 13b] | 82.3 |
| O=C(Nc1cc(C(F)(F)F)cc(C(F)(F)F)c1)c1ccc(S(=O)(=O)c2ccc(O)cc2)cc1 [Compound 13c] | 65.7 |
| O=C(Nc1cccc(S(F)(F)(F)(F)F)c1)c1ccc(S(=O)(=O)c2ccc(O)cc2)cc1 [Compound 13f, N-(3-(Pentafluorosulfanyl)phenyl)-4-((4-hydroxyphenyl)sulfonyl)benzamide] | 76.2 |

System: DU-145
Experiment: 2D monolayer antiproliferative assay (propidium iodide), DU-145
Details: Homo sapiens, DU-145, 96 h, read-out: Absolute IC50 DU-145
Experimental: (§1) All new compounds along with the two standards were tested for their ability to inhibit survival and/or cell proliferation in four human prostate cancer cell lines: LNCaP, 22Rv1, VCaP, androgen-sensitive cell lines, and DU145, a non hormone-sensitive cell line.
(§2) Compound Handling: Stock solutions for all inhibitors were prepared in DMSO at a
(§3) were well soluble at this concentration in DMSO and precipitation was not observed for any
(§4) compound dissolved in 100% DMSO. Aliquots of the stock solution were thawed on the day
(§5) of use and stored at room temperature prior to and during treatment. The subsequent dilutions
(§6) were done with complete RPMI1640 cell culture medium. The DMSO stock solution was first
(§7) Starting with this solution, serial dilutions in
(§8) half-log steps with cell culture medium were done using an intermediate dilution plate. Finally,
(§9) 10 µl taken from the intermediate dilution plate were transferred to 140 µl / well of the cell
(§10) culture plate. Thus, at the highest test concentration the DMSO stock was diluted 1:330,
(§11) corresponding to a maximum DMSO concentration of 0.3 % v/v in the assay. Solubility of the
(§12) diluted compounds in the assay was monitored under the microscope by visual inspection of
(§13) the treated cell lines after the 4 days incubation. Precipitation as observed by crystalline
(§14) Tumor Cell lines: The cell line panel used for assessing the novel inhibitors comprised four
(§15) cell lines derived from human prostate cancers.
(§16) 6-7 Cell lines were routinely passaged once or twice weekly and maintained in culture for up to 20 passages. All cells were grown at 37°C in
(§17) glutamine, #FG1385, Biochrom, Berlin, Germany) supplemented with 10% (v/v) fetal calf serum (Sigma, Taufkirchen, Germany) and 0.1 mg/mL gentamicin (Life Technologies,
(§18) Cell Proliferation Assay: A modified propidium iodide (PI) based monolayer assay was used
(§19) exponential phase cultures, counted and plated in 96-well flat-bottom micro titer plates at a cell density of 4.000 – 30.000 cells/well. After a 24 h recovery period to allow the cells to resume exponential growth, 10 µl of culture medium (six control wells/plate) or culture medium with test compound were added. The compounds were applied in half-log increments at 10 concentrations in triplicate. After a total treatment period of 96 h, cells were washed with 200 µl PBS to remove dead cells and debris. Then, 200 µl of a solution containing 7 µg/ml propidium iodide (PI) and 0.1% (v/v) Triton X-100 was added. After an incubation period of 1-2 hours at room temperature, fluorescence (FU) was measured using the EnSpire Multimode Plate Reader (excitation λ= 530 nm, emission λ= 620 nm) to quantify the amount of attached
(§20) For calculation of mean IC50 values the geometric mean was used.
(§21) Data Evaluation: An assay was considered fully evaluable if the following quality control
(§22) - Z’-factor calculated within the assay plate ≥0.59
(§23) - fluorescence intensity of >500 U from the untreated control wells, equivalent to a
(§24) - coefficient of variation in the growth control wells ≤30
(§25) Compound effects were expressed in terms of the percentage of the fluorescence signal, obtained by comparison of the mean signal in the treated wells with the mean signal of the untreated controls (expressed by the test-versus-control value, T/C-value [%]):

| SMILES | IC50 [µM] |
| --- | --- |
| O=C(Nc1ccc([N+](=O)[O-])c(C(F)(F)F)c1)c1ccc(Sc2ccc(O)cc2)cc1 [Compound 11b] | 5.74 |
| O=C(Nc1cc(C(F)(F)F)cc(C(F)(F)F)c1)c1ccc(Sc2ccc(O)cc2)cc1 [Compound 11c] | 5.6 |
| O=C(Nc1cc(C(F)(F)F)ccc1C(F)(F)F)c1ccc(Sc2ccc(O)cc2)cc1 [Compound 11d] | 16.6 |
| O=C(Nc1ccc(S(F)(F)(F)(F)F)cc1)c1ccc(Sc2ccc(O)cc2)cc1 [Compound 11e] | 6.76 |
| O=C(Nc1cccc(S(F)(F)(F)(F)F)c1)c1ccc(Sc2ccc(O)cc2)cc1 [Compound 11f] | 4.35 |
| O=C(Nc1ccc(C(F)(F)F)cc1)c1ccc(Sc2ccc(O)cc2)cc1 [Compound 11g] | 8.55 |
| O=C(Nc1cccc(C(F)(F)F)c1)c1ccc(Sc2ccc(O)cc2)cc1 [Compound 11h] | 5.95 |
| O=C(Nc1ccccc1C(F)(F)F)c1ccc(Sc2ccc(O)cc2)cc1 [Compound 11i] | 35.7 |
| O=C(Nc1cccc(C(F)(F)F)c1)c1ccc(Sc2cccc(C(F)(F)F)c2)cc1 [Compound 12h] | 9.89 |
| O=C(Nc1ccc([N+](=O)[O-])c(C(F)(F)F)c1)c1ccc(S(=O)(=O)c2ccc(O)cc2)cc1 [Compound 13b] | 8.85 |
| O=C(Nc1cc(C(F)(F)F)cc(C(F)(F)F)c1)c1ccc(S(=O)(=O)c2ccc(O)cc2)cc1 [Compound 13c] | 9.92 |
| O=C(Nc1cccc(S(F)(F)(F)(F)F)c1)c1ccc(S(=O)(=O)c2ccc(O)cc2)cc1 [Compound 13f, N-(3-(Pentafluorosulfanyl)phenyl)-4-((4-hydroxyphenyl)sulfonyl)benzamide] | 6.01 |

System: 22Rv1
Experiment: 2D monolayer antiproliferative assay (propidium iodide), 22Rv1
Details: Homo sapiens, 22Rv1, 96 h, read-out: Absolute IC50 22Rv1
Experimental: as §1, §2, §3, §4, §5, §6, §7, §8, §9, §10, §11, §12, §13, §14, §15, §16, §17, §18, §19, §20, §21, §22, §23, §24, §25

| SMILES | IC50 [µM] |
| --- | --- |
| O=C(Nc1ccc([N+](=O)[O-])c(C(F)(F)F)c1)c1ccc(Sc2ccc(O)cc2)cc1 [Compound 11b] | 4.5 |
| O=C(Nc1cc(C(F)(F)F)cc(C(F)(F)F)c1)c1ccc(Sc2ccc(O)cc2)cc1 [Compound 11c] | 3.35 |
| O=C(Nc1cc(C(F)(F)F)ccc1C(F)(F)F)c1ccc(Sc2ccc(O)cc2)cc1 [Compound 11d] | 10.3 |
| O=C(Nc1ccc(S(F)(F)(F)(F)F)cc1)c1ccc(Sc2ccc(O)cc2)cc1 [Compound 11e] | 3.71 |
| O=C(Nc1cccc(S(F)(F)(F)(F)F)c1)c1ccc(Sc2ccc(O)cc2)cc1 [Compound 11f] | 2.94 |
| O=C(Nc1ccc(C(F)(F)F)cc1)c1ccc(Sc2ccc(O)cc2)cc1 [Compound 11g] | 6.23 |
| O=C(Nc1cccc(C(F)(F)F)c1)c1ccc(Sc2ccc(O)cc2)cc1 [Compound 11h] | 5.73 |
| O=C(Nc1ccccc1C(F)(F)F)c1ccc(Sc2ccc(O)cc2)cc1 [Compound 11i] | 30.9 |
| O=C(Nc1cccc(C(F)(F)F)c1)c1ccc(Sc2cccc(C(F)(F)F)c2)cc1 [Compound 12h] | 6.96 |
| O=C(Nc1ccc([N+](=O)[O-])c(C(F)(F)F)c1)c1ccc(S(=O)(=O)c2ccc(O)cc2)cc1 [Compound 13b] | 7.3 |
| O=C(Nc1cc(C(F)(F)F)cc(C(F)(F)F)c1)c1ccc(S(=O)(=O)c2ccc(O)cc2)cc1 [Compound 13c] | 6.44 |
| O=C(Nc1cccc(S(F)(F)(F)(F)F)c1)c1ccc(S(=O)(=O)c2ccc(O)cc2)cc1 [Compound 13f, N-(3-(Pentafluorosulfanyl)phenyl)-4-((4-hydroxyphenyl)sulfonyl)benzamide] | 5.66 |

System: LNCaP
Experiment: 2D monolayer antiproliferative assay (propidium iodide), LNCaP
Details: Homo sapiens, LNCaP, 96 h, read-out: Absolute IC50 LNCaP
Experimental: as §1, §2, §3, §4, §5, §6, §7, §8, §9, §10, §11, §12, §13, §14, §15, §16, §17, §18, §19, §20, §21, §22, §23, §24, §25

| SMILES | IC50 [µM] |
| --- | --- |
| O=C(Nc1ccc([N+](=O)[O-])c(C(F)(F)F)c1)c1ccc(Sc2ccc(O)cc2)cc1 [Compound 11b] | 3.58 |
| O=C(Nc1cc(C(F)(F)F)cc(C(F)(F)F)c1)c1ccc(Sc2ccc(O)cc2)cc1 [Compound 11c] | 2.39 |
| O=C(Nc1cc(C(F)(F)F)ccc1C(F)(F)F)c1ccc(Sc2ccc(O)cc2)cc1 [Compound 11d] | 11.4 |
| O=C(Nc1ccc(S(F)(F)(F)(F)F)cc1)c1ccc(Sc2ccc(O)cc2)cc1 [Compound 11e] | 4.86 |
| O=C(Nc1cccc(S(F)(F)(F)(F)F)c1)c1ccc(Sc2ccc(O)cc2)cc1 [Compound 11f] | 3.32 |
| O=C(Nc1ccc(C(F)(F)F)cc1)c1ccc(Sc2ccc(O)cc2)cc1 [Compound 11g] | 8.3 |
| O=C(Nc1cccc(C(F)(F)F)c1)c1ccc(Sc2ccc(O)cc2)cc1 [Compound 11h] | 9.66 |
| O=C(Nc1ccccc1C(F)(F)F)c1ccc(Sc2ccc(O)cc2)cc1 [Compound 11i] | 11.4 |
| O=C(Nc1cccc(C(F)(F)F)c1)c1ccc(Sc2cccc(C(F)(F)F)c2)cc1 [Compound 12h] | 12.5 |
| O=C(Nc1ccc([N+](=O)[O-])c(C(F)(F)F)c1)c1ccc(S(=O)(=O)c2ccc(O)cc2)cc1 [Compound 13b] | 4.96 |
| O=C(Nc1cc(C(F)(F)F)cc(C(F)(F)F)c1)c1ccc(S(=O)(=O)c2ccc(O)cc2)cc1 [Compound 13c] | 8.41 |
| O=C(Nc1cccc(S(F)(F)(F)(F)F)c1)c1ccc(S(=O)(=O)c2ccc(O)cc2)cc1 [Compound 13f, N-(3-(Pentafluorosulfanyl)phenyl)-4-((4-hydroxyphenyl)sulfonyl)benzamide] | 3.98 |

System: VCaP
Experiment: 2D monolayer antiproliferative assay (propidium iodide), VCaP
Details: Homo sapiens, 96 h, read-out: Absolute IC50 VCaP
Experimental: as §1, §2, §3, §4, §5, §6, §7, §8, §9, §10, §11, §12, §13, §14, §15, §16, §17, §18, §19, §20, §21, §22, §23, §24, §25

| SMILES | IC50 [µM] |
| --- | --- |
| O=C(Nc1ccc([N+](=O)[O-])c(C(F)(F)F)c1)c1ccc(Sc2ccc(O)cc2)cc1 [Compound 11b] | 5.19 |
| O=C(Nc1cc(C(F)(F)F)cc(C(F)(F)F)c1)c1ccc(Sc2ccc(O)cc2)cc1 [Compound 11c] | 2.59 |
| O=C(Nc1cc(C(F)(F)F)ccc1C(F)(F)F)c1ccc(Sc2ccc(O)cc2)cc1 [Compound 11d] | 10.9 |
| O=C(Nc1ccc(S(F)(F)(F)(F)F)cc1)c1ccc(Sc2ccc(O)cc2)cc1 [Compound 11e] | 7.15 |
| O=C(Nc1cccc(S(F)(F)(F)(F)F)c1)c1ccc(Sc2ccc(O)cc2)cc1 [Compound 11f] | 6.1 |
| O=C(Nc1ccc(C(F)(F)F)cc1)c1ccc(Sc2ccc(O)cc2)cc1 [Compound 11g] | 9.68 |
| O=C(Nc1cccc(C(F)(F)F)c1)c1ccc(Sc2ccc(O)cc2)cc1 [Compound 11h] | 10.6 |
| O=C(Nc1ccccc1C(F)(F)F)c1ccc(Sc2ccc(O)cc2)cc1 [Compound 11i] | 32.3 |
| O=C(Nc1cccc(C(F)(F)F)c1)c1ccc(Sc2cccc(C(F)(F)F)c2)cc1 [Compound 12h] | 28.2 |
| O=C(Nc1ccc([N+](=O)[O-])c(C(F)(F)F)c1)c1ccc(S(=O)(=O)c2ccc(O)cc2)cc1 [Compound 13b] | 8.57 |
| O=C(Nc1cc(C(F)(F)F)cc(C(F)(F)F)c1)c1ccc(S(=O)(=O)c2ccc(O)cc2)cc1 [Compound 13c] | 9.72 |
| O=C(Nc1cccc(S(F)(F)(F)(F)F)c1)c1ccc(S(=O)(=O)c2ccc(O)cc2)cc1 [Compound 13f, N-(3-(Pentafluorosulfanyl)phenyl)-4-((4-hydroxyphenyl)sulfonyl)benzamide] | 10.8 |

System: four human prostate cancer cell lines: LNCaP, 22Rv1, VCaP, DU145
Experiment: Antiproliferative assay, overall effect in the four cell lines (geometric mean)
Format: cell-based
Details: 11c vs 13c
Experimental: PCR based DNA-fingerprinting methodology.
density of 4.000 – 30.000 cells/well.
test compound were added.
concentrations in triplicate.
After an incubation period of
control/background ratio >3.0
The absolute IC50 value reflects the
The calculation was done by a 4
for calculation of the geometric mean value.
of 0.05% Trypsin/EDTA. […] When all cells

| SMILES | increase of IC50 values, sulfone vs thioether |
| --- | --- |
| O=C(Nc1cc(C(F)(F)F)cc(C(F)(F)F)c1)c1ccc(S(=O)(=O)c2ccc(O)cc2)cc1 [Compound 13c] | up to 2 fold |

Same assay, conditions: 11h vs 11i

| SMILES | reduction of overall effect in the four cell lines, ortho vs meta CF3 [fold] |
| --- | --- |
| O=C(Nc1ccccc1C(F)(F)F)c1ccc(Sc2ccc(O)cc2)cc1 [Compound 11i] | 3 |

Same assay, conditions: Homo sapiens, geometric mean of the four cell lines; read-out: Absolute IC50 Geo. mean

| SMILES | IC50 [µM] |
| --- | --- |
| O=C(Nc1ccc([N+](=O)[O-])c(C(F)(F)F)c1)c1ccc(Sc2ccc(O)cc2)cc1 [Compound 11b] | 4.68 |
| O=C(Nc1cc(C(F)(F)F)cc(C(F)(F)F)c1)c1ccc(Sc2ccc(O)cc2)cc1 [Compound 11c] | 3.28 |
| O=C(Nc1cc(C(F)(F)F)ccc1C(F)(F)F)c1ccc(Sc2ccc(O)cc2)cc1 [Compound 11d] | 12.1 |
| O=C(Nc1ccc(S(F)(F)(F)(F)F)cc1)c1ccc(Sc2ccc(O)cc2)cc1 [Compound 11e] | 5.43 |
| O=C(Nc1cccc(S(F)(F)(F)(F)F)c1)c1ccc(Sc2ccc(O)cc2)cc1 [Compound 11f] | 4.01 |
| O=C(Nc1ccc(C(F)(F)F)cc1)c1ccc(Sc2ccc(O)cc2)cc1 [Compound 11g] | 8.09 |
| O=C(Nc1ccccc1C(F)(F)F)c1ccc(Sc2ccc(O)cc2)cc1 [Compound 11i] | 25.2 |
| O=C(Nc1cccc(C(F)(F)F)c1)c1ccc(Sc2cccc(C(F)(F)F)c2)cc1 [Compound 12h] | < 16 |
| O=C(Nc1cc(C(F)(F)F)cc(C(F)(F)F)c1)c1ccc(S(=O)(=O)c2ccc(O)cc2)cc1 [Compound 13c] | 8.5 |
| O=C(Nc1cccc(S(F)(F)(F)(F)F)c1)c1ccc(S(=O)(=O)c2ccc(O)cc2)cc1 [Compound 13f, N-(3-(Pentafluorosulfanyl)phenyl)-4-((4-hydroxyphenyl)sulfonyl)benzamide] | 6.18 |

Same assay, conditions: geometric mean of the four cell lines; read-out: Absolute IC50 Geo. mean

| SMILES | IC50 [µM] |
| --- | --- |
| O=C(Nc1cccc(C(F)(F)F)c1)c1ccc(Sc2cccc(C(F)(F)F)c2)cc1 [Compound 12h] | 12.5 |
